Measurements taken from PubChem BioAssay AID248 (DTP/NCI, 2004).
Values joined by “and” are separate entries in the source; they are usually repeats but may differ in a detail not shown here. Equal values may be shown once. Toxic doses and inconclusive results are not listed. No stated cut-off is given here; in the data, active means T/C of 150% or more; inactive means T/C below 125%.

Test system: L1210 leukemia ip in BDF1 mice, survival T/C
Test: NCI In Vivo Anticancer Drug Screen. Data for tumor model L1210 Leukemia (intraperitoneal) in B6D2F1 (BDF1) mice
Settings: endpoint: mean survival time, higher = longer survival
How it was run: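 Each compound was tested against a transplantable tumor grown in mice. The endpoint was survival, with treated animals benchmarked against vehicle controls as a simple ratio.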

[1] = dose: 100.0 mg/kg/injection, schedule: Q04DX003 (ip), vehicle: saline with Tween-80
[2] = dose: 200.0 mg/kg/injection, schedule: Q04DX003 (ip), vehicle: saline with Tween-80
[3] = dose: 100.0 mg/kg/injection, schedule: Q01DX001 (ip), vehicle: saline
[4] = dose: 200.0 mg/kg/injection, schedule: Q01DX001 (ip), vehicle: saline
[5] = dose: 400.0 mg/kg/injection, schedule: Q01DX001 (ip), vehicle: saline
[6] = dose: 100.0 mg/kg/injection, schedule: Q04DX003 (ip), vehicle: saline
[7] = dose: 200.0 mg/kg/injection, schedule: Q04DX003 (ip), vehicle: saline
[8] = dose: 100.0 mg/kg/injection, schedule: Q01DX001 (ip), vehicle: carboxymethylcellulose (CMC)
[9] = dose: 200.0 mg/kg/injection, schedule: Q01DX001 (ip), vehicle: carboxymethylcellulose (CMC)
[10] = dose: 400.0 mg/kg/injection, schedule: Q01DX001 (ip), vehicle: carboxymethylcellulose (CMC)

Measured: T/C

CCCCCCCC/C=C\CCCCCCCC(=O)OCCCCCCCCCCCCC
inactive: dose: 100.0 mg/kg/injection, schedule: Q01DX009 (ip), vehicle: saline sonified 91 % of control | dose: 200.0 mg/kg/injection, schedule: Q01DX009 (ip), vehicle: saline sonified 102 % of control | dose: 400.0 mg/kg/injection, schedule: Q01DX009 (ip), vehicle: saline sonified 93 % of control

NC(=O)NC1CCCCC1
inactive: [1] 87 % of control | [2] 97 % of control | dose: 400.0 mg/kg/injection, schedule: Q04DX003 (ip), vehicle: saline with Tween-80 92 % of control

CCN(CC)CCOC(=O)C(c1ccccc1)C1C=CCCC1 (centres undefined)
inactive: dose: 75.0 mg/kg/injection, schedule: Q01DX001 (ip), vehicle: saline 102 % of control | dose: 150.0 mg/kg/injection, schedule: Q01DX001 (ip), vehicle: saline 92 % of control

CNC(=O)Nc1nc2ccccc2[nH]1
inactive: [3] 103 % of control | [1] 109 % of control | [4] 115 % of control | [2] 109 % of control | [5] 100 % of control

NC(N)=N/N=C(/CC(=O)c1ccccc1)c1ccccc1
inactive: dose: 15.0 mg/kg/injection, schedule: Q01DX Z (ip), vehicle: carboxymethylcellulose (CMC) 103 % of control | dose: 30.0 mg/kg/injection, schedule: Q01DX Z (ip), vehicle: carboxymethylcellulose (CMC) 107 % of control | dose: 30.0 mg/kg/injection, schedule: Q01DX Z (oral), vehicle: carboxymethylcellulose (CMC) 98 % of control | dose: 60.0 mg/kg/injection, schedule: Q01DX Z (ip), vehicle: carboxymethylcellulose (CMC) 101 % of control | dose: 60.0 mg/kg/injection, schedule: Q01DX Z (oral), vehicle: carboxymethylcellulose (CMC) 96 % of control | dose: 120.0 mg/kg/injection, schedule: Q01DX Z (oral), vehicle: carboxymethylcellulose (CMC) 98 % of control | dose: 240.0 mg/kg/injection, schedule: Q01DX Z (oral), vehicle: carboxymethylcellulose (CMC) 93 % of control and 100 % of control | dose: 480.0 mg/kg/injection, schedule: Q01DX Z (oral), vehicle: carboxymethylcellulose (CMC) 100 % of control

Cc1cccc(C)c1NC(=O)N(CCO)C1CCCCC1
inactive: [6] 102 % of control | [7] 112 % of control | dose: 400.0 mg/kg/injection, schedule: Q04DX003 (ip), vehicle: saline 104 % of control

O=C1CCCc2c1cc(C1CCCC1)c1ccccc21
inactive: [8] 92 % of control | [9] 95 % of control | [10] 98 % of control

CC(O)c1cccc(N(C)C)c1 (centres undefined)
inactive: dose: 50.0 mg/kg/injection, schedule: Q01DX009 (ip), vehicle: acetone 93 % of control | dose: 100.0 mg/kg/injection, schedule: Q01DX009 (ip), vehicle: acetone 95 % of control | dose: 100.0 mg/kg/injection, schedule: Q04DX003 (ip), vehicle: acetone 96 % of control | dose: 200.0 mg/kg/injection, schedule: Q01DX009 (ip), vehicle: acetone 93 % of control | dose: 200.0 mg/kg/injection, schedule: Q04DX003 (ip), vehicle: acetone 96 % of control | dose: 400.0 mg/kg/injection, schedule: Q04DX003 (ip), vehicle: acetone 101 % of control

O=[N+]([O-])c1ccc(OC(=S)Oc2ccc([N+](=O)[O-])cc2)cc1
inactive: dose: 50.0 mg/kg/injection, schedule: Q01DX001 (ip), vehicle: carboxymethylcellulose (CMC) 103 % of control | [8] 105 % of control | [9] 97 % of control | [10] 100 % of control

COC1C(COC(C)=O)OC(n2cnc3c(=S)nc[nH]c32)C1OC(C)=O (centres undefined)
inactive: [8] 114 % of control | [9] 104 % of control | [10] 111 % of control

CCCCCCCCCCNC(=O)C[n+]1cccc(C(=O)Nc2ccccc2)c1
inactive: dose: 3.12 mg/kg/injection, schedule: Q01DX009 (ip), vehicle: saline with Tween-80 100 % of control | dose: 6.25 mg/kg/injection, schedule: Q01DX009 (ip), vehicle: saline with Tween-80 105 % of control | dose: 12.5 mg/kg/injection, schedule: Q01DX009 (ip), vehicle: saline with Tween-80 88 % of control | dose: 12.5 mg/kg/injection, schedule: Q04DX003 (ip), vehicle: saline 103 % of control | dose: 25.0 mg/kg/injection, schedule: Q04DX003 (ip), vehicle: saline 88 % of control

c1ccc(C2C(CN3CCCCCC3)C2c2ccccc2)cc1 (centres undefined)
inactive: dose: 12.5 mg/kg/injection, schedule: Q04DX002 (ip), vehicle: Klucel (hydroxypropylcellulose) (HPC) 88 % of control | dose: 25.0 mg/kg/injection, schedule: Q04DX002 (ip), vehicle: Klucel (hydroxypropylcellulose) (HPC) 95 % of control and 98 % of control | dose: 50.0 mg/kg/injection, schedule: Q04DX002 (ip), vehicle: Klucel (hydroxypropylcellulose) (HPC) 98 % of control and 101 % of control and 91 % of control | dose: 100.0 mg/kg/injection, schedule: Q04DX002 (ip), vehicle: Klucel (hydroxypropylcellulose) (HPC) 92 % of control

CCCCCCCC[N+](CC)(CC)CCOC(=O)C(C1CCCC1)C1CCCC1
inactive: dose: 0.25 mg/kg/injection, schedule: Q01DX015 (ip), vehicle: saline 91 % of control | dose: 0.5 mg/kg/injection, schedule: Q01DX015 (ip), vehicle: saline 91 % of control | dose: 1.0 mg/kg/injection, schedule: Q01DX015 (ip), vehicle: saline 88 % of control | dose: 1.25 mg/kg/injection, schedule: Q01DX009 (ip), vehicle: saline 95 % of control | dose: 2.0 mg/kg/injection, schedule: Q01DX015 (ip), vehicle: saline 86 % of control | dose: 2.5 mg/kg/injection, schedule: Q01DX009 (ip), vehicle: saline 102 % of control | dose: 2.5 mg/kg/injection, schedule: Q04DX003 (ip), vehicle: saline 94 % of control | dose: 5.0 mg/kg/injection, schedule: Q04DX003 (ip), vehicle: saline 94 % of control

CCC(=O)c1ccc(N2CCOCC2)cc1
inactive: dose: 50.0 mg/kg/injection, schedule: Q04DX003 (ip), vehicle: Klucel (hydroxypropylcellulose) (HPC) 97 % of control | dose: 100.0 mg/kg/injection, schedule: Q01DX001 (ip), vehicle: other 107 % of control | dose: 100.0 mg/kg/injection, schedule: Q04DX003 (ip), vehicle: Klucel (hydroxypropylcellulose) (HPC) 101 % of control | dose: 200.0 mg/kg/injection, schedule: Q01DX001 (ip), vehicle: other 107 % of control | dose: 200.0 mg/kg/injection, schedule: Q04DX003 (ip), vehicle: Klucel (hydroxypropylcellulose) (HPC) 108 % of control | dose: 400.0 mg/kg/injection, schedule: Q01DX001 (ip), vehicle: other 107 % of control

O=C1OC(=O)c2c3c(c4c(c21)CCC4)CCC3
inactive: dose: 50.0 mg/kg/injection, schedule: Q01DX009 (ip), vehicle: saline 107 % of control | [3] 100 % of control | dose: 100.0 mg/kg/injection, schedule: Q01DX009 (ip), vehicle: saline 93 % of control | [6] 101 % of control | [4] 91 % of control | dose: 200.0 mg/kg/injection, schedule: Q01DX009 (ip), vehicle: saline 94 % of control | [7] 96 % of control | [5] 97 % of control

C=CCOC(=O)CCCCCCCCCCC
inactive: dose: 100.0 mg/kg/injection, schedule: Q01DX009 (ip), vehicle: saline with Tween-80 107 % of control | dose: 200.0 mg/kg/injection, schedule: Q01DX009 (ip), vehicle: saline with Tween-80 107 % of control | dose: 400.0 mg/kg/injection, schedule: Q01DX009 (ip), vehicle: saline with Tween-80 96 % of control
